For this experiment, the system named is TFEB. The experiment in a line: TFEB Nuclear Translocation Assay. Particulars: read-out: EC50 of TFEB activation. Format: cell-based.
In the case of `CC(C)S(=O)(=O)n1ccc(S(=O)(=O)n2nc(N3CCN(c4ccc(F)cn4)CC34CC4)c3c(F)cc(F)cc32)c1` [Compound 165, 4,6-difluoro-3-(7-(5-fluoropyridin-2-yl)-4,7-diazaspiro [2.5]octan-4-yl)-1-((1-(isopropylsulfonyl)-1H-pyrrol-3-yl)sulfonyl)-1H-indazole], the EC50 was at most 1000 nM. On to `CC(C)S(=O)(=O)n1ccc(S(=O)(=O)n2nc(N3CCN(c4ncc(F)cn4)CC34CC4)c3c(F)cc(F)cc32)c1` [Compound 166, 4,6-difluoro-3-(7-(5-fluoropyrimidin-2-yl)-4,7-diazaspiro [2.5]octan-4-yl)-1-((1-(isopropylsulfonyl)-1H-pyrrol-3-yl)sulfonyl)-1H-indazole], for which the EC50 is at most 1000 nM. `CC(C)S(=O)(=O)n1ccc(S(=O)(=O)n2nc(N3CCN(c4ncc(F)cn4)CC34CC4)c3c(F)cc(Cl)cc32)c1` [Compound 167, 6-chloro-4-fluoro-3-(7-(5-fluoropyrimidin-2-yl)-4,7-diazaspiro [2.5]octan-4-yl)-1-((1-(isopropylsulfonyl)-1H-pyrrol-3-yl)sulfonyl)-1H-indazole]: the EC50 is at most 1000 nM. For `CC(C)S(=O)(=O)n1ccc(S(=O)(=O)n2nc(N3CCN(c4ncc(F)cc4F)CC34CC4)c3c(F)cc(Cl)cc32)c1` [Compound 168, 6-chloro-3-[7-(3,5-difluoro-2-pyridyl)-4,7-diazaspiro [2.5]octan-4-yl]-4-fluoro-1-(1-isopropylsulfonylpyrrol-3-yl) sulfonyl-indazole], the EC50 is at most 1000 nM.

On to `CN(C)S(=O)(=O)n1ccc(S(=O)(=O)n2nc(N3CCN(c4ncc(F)cn4)CC34CC4)c3c(F)cc(F)cc32)c1` [Compound 169, 3-[4,6-difluoro-3-[7-(5-fluoropyrimidin-2-yl)-4,7-diazaspiro [2.5]octan-4-yl]indazol-1-yl]sulfonyl-N, N-dimethyl-pyrrole-1-sulfonamide], for which the half-maximal effective concentration (EC50) was at most 1000 nM. Consider `CN(C)S(=O)(=O)n1ccc(S(=O)(=O)n2nc(N3CCN(c4ncc(F)cn4)CC34CC4)c3c(Cl)cc(F)cc32)c1` [Compound 170, 3-[4-chloro-6-fluoro-3-[7-(5-fluoropyrimidin-2-yl)-4,7-diazaspiro [2.5]octan-4-yl]indazol-1-yl]sulfonyl-N, N-dimethyl-pyrrole-1-sulfonamide], for which the EC50 is at most 1000 nM. For `CC(C)(C)S(=O)(=O)n1ccc(S(=O)(=O)n2nc(N3CCN(c4ncc(F)cn4)CC34CC4)c3c(Cl)cc(F)cc32)c1` [Compound 171, 1-((1-(tert-butylsulfonyl)-1H-pyrrol-3-yl)sulfonyl)-4-chloro-6-fluoro-3-(7-(5-fluoropyrimidin-2-yl)-4,7-diazaspiro [2.5]octan-4-yl)-1H-indazole] the value was at most 1000 nM; for `CC(C)(C)S(=O)(=O)n1ccc(S(=O)(=O)n2nc(N3CCN(c4ncc(F)cn4)CC34CC4)c3c(F)cc(F)cc32)c1` [Compound 172, 1-((1-(tert-butylsulfonyl)-1H-pyrrol-3-yl)sulfonyl)-4,6-difluoro-3-(7-(5-fluoropyrimidin-2-yl)-4,7-diazaspiro [2.5]octan-4-yl)-1H-indazole], at most 1000 nM. Take `O=S(=O)(c1ccn(S(=O)(=O)C2CC2)c1)n1nc(N2CCN(c3ncc(F)cn3)CC23CC3)c2c(Cl)cc(F)cc21` [Compound 173, 4-chloro-1-((1-(cyclopropylsulfonyl)-1H-pyrrol-3-yl)sulfonyl)-6-fluoro-3-(7-(5-fluoropyrimidin-2-yl)-4,7-diazaspiro [2.5]octan-4-yl)-1H-indazole]: the half-maximal effective concentration (EC50) is at most 1000 nM. For `O=S(=O)(c1ccn(S(=O)(=O)C2CC2)c1)n1nc(N2CCN(c3ncc(F)cn3)CC23CC3)c2c(F)cc(F)cc21` [Compound 174, 1-((1-(cyclopropylsulfonyl)-1H-pyrrol-3-yl)sulfonyl)-4,6-difluoro-3-(7-(5-fluoropyrimidin-2-yl)-4,7-diazaspiro [2.5]octan-4-yl)-1H-indazole] the value was at most 1000 nM; for `CC(C)S(=O)(=O)n1ccc(S(=O)(=O)n2nc(N3CCN(c4ccc(F)cc4)CC34CC4)c3c(Cl)cc(F)cc32)c1` [Compound 175, 4-chloro-6-fluoro-3-(7-(4-fluorophenyl)-4,7-diazaspiro [2.5]octan-4-yl)-1-((1-(isopropylsulfonyl)-1H-pyrrol-3-yl)sulfonyl)-1H-indazole], at most 1000 nM. For `CC(C)S(=O)(=O)n1ccc(S(=O)(=O)n2nc(N3CCN(c4ccncc4)CC34CC4)c3c(Cl)cc(F)cc32)c1` [Compound 176, 4-chloro-6-fluoro-1-(1-isopropylsulfonylpyrrol-3-yl) sulfonyl-3-[7-(4-pyridyl)-4,7-diazaspiro [2.5]octan-4-yl]indazole] the value was at least 10000 nM; for `CC(C)S(=O)(=O)n1ccc(S(=O)(=O)n2nc(N3CCN(c4ncc(F)cn4)C[C@@H]3C)c3c(Cl)cc(F)cc32)c1` [Compound 177, 4-chloro-6-fluoro-3-[(2S)-4-(5-fluoropyrimidin-2-yl)-2-methyl-piperazin-1-yl]-1-(1-isopropylsulfonylpyrrol-3-yl) sulfonyl-indazole], at most 1000 nM. `CC(C)S(=O)(=O)n1ccc(S(=O)(=O)n2nc(N3CCN(c4ncc(F)cn4)C[C@H]3C)c3c(Cl)cc(F)cc32)c1` [Compound 178, 4-chloro-6-fluoro-3-[(2R)-4-(5-fluoropyrimidin-2-yl)-2-methyl-piperazin-1-yl]-1-(1-isopropylsulfonylpyrrol-3-yl) sulfonyl-indazole]: the EC50 was at most 1000 nM. For `CC(C)S(=O)(=O)n1ccc(S(=O)(=O)n2nc(N3CCN(c4ncc(F)cn4)CC34CCC4)c3c(Cl)cc(F)cc32)c1` [Compound 179, 4-chloro-6-fluoro-3-(8-(5-fluoropyrimidin-2-yl)-5,8-diazaspiro [3.5]nonan-5-yl)-1-((1-(isopropylsulfonyl)-1H-pyrrol-3-yl)sulfonyl)-1H-indazole], the half-maximal effective concentration (EC50) is at most 1000 nM.

As for `[2H]c1c(S(=O)(=O)n2nc(N3CCN(c4ncc(F)cn4)CC34CC4)c3c(Cl)cc(F)cc32)c([2H])n(S(=O)(=O)C(C)C)c1[2H]` [Compound 180, 4-chloro-6-fluoro-3-[7-(5-fluoropyrimidin-2-yl)-4,7-diazaspiro [2.5]octan-4-yl]-1-(2,4,5-trideuterio-1-isopropylsulfonyl-pyrrol-3-yl) sulfonyl-indazole], the EC50 is at most 1000 nM. For `[2H]c1c(S(=O)(=O)n2nc(N3CCN(c4ncc(F)cn4)CC34CC4)c3c(Cl)cc(F)cc32)c([2H])n(S(=O)(=O)C(C)(C)Cl)c1[2H]` [Compound 181, 4-chloro-1-[1-(1-chloro-1-methyl-ethyl)sulfonyl-2,4,5-trideuterio-pyrrol-3-yl]sulfonyl-6-fluoro-3-[7-(5-fluoropyrimidin-2-yl)-4,7-diazaspiro[2.5]octan-4-yl]indazole] the value was at most 1000 nM; for `CC(C)S(=O)(=O)n1ccc(S(=O)(=O)n2nc(N3CCN(c4c(F)cccc4F)CC34CC4)c3c(Cl)cc(F)cc32)c1` [Compound 182, 4-chloro-3-(7-(2,6-difluorophenyl)-4,7-diazaspiro [2.5]octan-4-yl)-6-fluoro-1-((1-(isopropylsulfonyl)-1H-pyrrol-3-yl)sulfonyl)-1H-indazole], at most 1000 nM.

Values taken from US20250333406A1, “SULFONYL CYCLIC DERIVATIVES, AND COMPOSITIONS AND METHODS THEREOF” (Lysoway Therapeutics, Inc., priority 2023, published 2025).
